Source: patent publication US20230257383A1, “COMPOUND SERVING AS BTK INHIBITOR, PREPARATION METHOD THEREFOR, AND USE THEREOF” (CHENGDU HYPERWAY PHARMACEUTICALS CO., LTD., priority 2020, published 2023)
Like-named read-outs stand apart in the source and are kept apart here.

Assays:
[1] = Liver microsome metabolic stability test (human); format: in vitro ADME; details: liver microsomes, read-out: CLint (μL/min/mg) Human
Protocol: (§1) 1: To the sample wells of T0, T5, T10, T20, T30, T60 and NCF60, 10 μL of the test or reference working solution and 80 μL of microsome working solution (hepatic microsome with a protein concentration of 0.5 mg/mL) were added, and to Blank60 well, only the microsome working solution was added. Then samples of the Blank60, T5, T10, T20, T30 and T60 other than TO and NCF60 were placed in a 37° C. water bath and pre-incubated for about 10 min.
(§2) 2: To the TO sample well, 300 μL of stop solution (containing 200 ng/mL tolbutamide and 200 ng/mL labetalol in acetonitrile solution) was added first, followed by 10 μL of NADPH regeneration system working solution.
(§3) 3: After the pre-incubation of Blank60, T5, T10, T20, T30 and T60 incubation plates, 10 μL of NADPH regeneration system working solution was added to each sample well to start the reaction, and 10 μL of 100 mM potassium phosphate buffer was added to the NCF60 sample well.
(§4) 4: After incubation for an appropriate time (such as 5, 10, 20, 30 and 60 min), to each test sample well and control well of the Blank60, T5, T10, T20, T30, T60 and NCF60 plates, 300 μL of stop solution was added to terminate the reaction.
(§5) 5: All sample plates were shaken to mix well and centrifuged at 4000 rpm for 20 min, and 100 μL of the supernatant of the test sample or control sample was taken and diluted with 300 μL of pure water for LC-MS/MS analysis.
(§6) 6: Data analysis: T1/2 and CLint(mic) (μL/min/mg) values were calculated according to the first-order elimination kinetics. The first-order elimination kinetics equation was: […]

[2] = Liver microsome metabolic stability test (rat); format: in vitro ADME; details: liver microsomes, read-out: CLint (μL/min/mg) Rat
Protocol: as §1, §2, §3, §4, §5, §6

TMD8 cell proliferation = experiment: In vitro cell proliferation inhibitory activity test (CTG), TMD8; format: cell-based; details: Homo sapiens, TMD8, 72 h, TMD8 cells
Protocol: (§7) Test Example 4: In Vitro Cell Proliferation Inhibitory Activity Test
(§8) Cells were cultured in 1640 medium, added with 10% inactivated FBS and 1% double antibiotics, and cultured at 37° C. and 5% CO2.
(§9) (1) Cells were routinely cultured until the cell density was 80%-90%, and the cells were harvested when their number reached the requirement.
(§10) (2) Cells were resuspended with corresponding culture medium, counted, and prepared into cell suspension at appropriate density.
(§11) (3) The cell suspension was added to a 96-well plate, 100 μL per well.
(§12) (4) Cells were cultured overnight in a 37° C., 5% CO2 incubator.
(§13) (1) The compounds to be tested were diluted with DMSO to make a stock solution with a final concentration of 20 mM for later use.
(§14) (2) The stock solution was diluted 10 times from 20 mM to 2 mM with DMSO, and then diluted 3 times from 2 mM to 9 concentrations.
(§15) (3) The blank control wells were cells plus 0.5% DMSO, as high-reading control wells.
(§16) (4) Wells with no cells and only medium were used as low-reading control wells.
(§17) 4: Cell treatment with compound
(§18) (1) 24 h after the cells were plated, the compounds acted alone, and 99 μL of growth medium was added to each well, followed by 1 μL of the compound prepared in step 3. The plate was shaken gently to mix uniformly, and then placed in a 37° C., 5% CO2 incubator.
(§19) (2) The cell plate was placed in an incubator for 72 h.
(§20) 5: Detection by CTG method
(§21) (1) The cell plate to be tested was placed at room temperature for 30 min, and 100 μL of medium was discarded from each well.
(§22) (2) 100 μL of CTG reagent (CelltiterGlo kit) was added to each well, placed on a fast shaker for 2 min, and stood at room temperature in the dark for 30 min.
(§23) (3) The chemiluminescent signal value was read with the Envision instrument.
(§24) IC50 was calculated by using GraphPad Prism 8 software. The IC50 (half inhibitory concentration) of the compound was derived using the following nonlinear fitting formula, and the results are shown in the following table:
(§25) Y=Bottom+(Top−Bottom)/(1+10^((Log IC50−X)×HillSlope))
(§26) X: log value of compound concentration, Y: inhibition rate (% inhibition)
(§27) Inhibition rate (% inhibition)=(reading of high-reading control well-reading of compound well)/(reading of high-reading control well-reading of low-reading control well)×100

[3] = tested on: TMD8 mouse subcutaneous xenograft tumor; experiment: TMD8 pharmacodynamic model test; format: in vivo; details: same dose of 10 mg/kg, FIG. 1
Protocol: Test Example 7: TNMD8 Pharmacodynamic Model Test
Human diffuse large B-cell lymphoma TMD8 cells were monolayer-cultured in vitro in RPNHI1640 medium with […], 100 U/mL penicillin and 100 μg/mL streptomycin, in a 37° C., […] incubator. Routine digestion with trypsin-EDTA was performed twice a week for passaging. When the cell density was […] and the number reached the requirement, cells were harvested, counted and inoculated. 0.2 ml (1×10^7 cells) of TMVD8 cells (added with matrigel at a volume ratio of 1:1) were subcutaneously inoculated on the right back of each mouse. The mice were administered in groups when the average tumor volume reached about 137 mm^3. Tumor diameters were measured twice a week with vernier calipers. The tumor volume was calculated by the formula V=0.5 a×b^2, where a and b represent the long and short diameters of the tumor, respectively.

[4] = Pharmacokinetic test, oral, SD rats; format: in vivo; details: oral 10 mg/kg
Protocol: Each test compound was administered orally (10 mg/kg, 3 rats in each group) to SD rats for pharmacokinetic study. […] Animals were fasted overnight before oral administration, and fed again after 4 h of administration. […] At each collection time point, 3 whole blood samples were collected at a the collection volume of about 0.2-0.3 mL. […] The collected plasma was stored at −20° C. before analysis. 20 μL of plasma sample was added into a 1.6 mL 96-well deep-well plate, added with 200 μL of working internal standard solution (the same volume of vehicle was added to the blank instead of internal standard), vortexed for 1 min, and centrifuged at 5800 rpm for 10 min. 100 μL of the supernatant was added to a 96-well injection plate for LC-MS/MS analysis.

DOHH2 cell proliferation = experiment: In vitro cell proliferation inhibitory activity test (CTG), DOHH2; format: cell-based; details: Homo sapiens, DOHH-2
Protocol: as §7, §8, §9, §10, §11, §12, §13, §14, §15, §16, §17, §18, §19, §20, §21, §22, §23, §24, §25, §26, §27

BT474 cell proliferation = experiment: In vitro cell proliferation inhibitory activity test (CTG), BT474; format: cell-based; details: Homo sapiens, BT-474, BT474 cell proliferation
Protocol: as §7, §8, §9, §10, §11, §12, §13, §14, §15, §16, §17, §18, §19, §20, §21, §22, §23, §24, §25, §26, §27

[5] = tested on: NCI-N87 cell proliferation; experiment: In vitro cell proliferation inhibitory activity test (CTG), NCI-N87; format: cell-based; details: Homo sapiens
Protocol: as §7, §8, §9, §10, §11, §12, §13, §14, §15, §16, §17, §18, §19, §20, §21, §22, §23, §24, §25, §26, §27

HER2 kinase = HER2 kinase (Homo sapiens, UniProt P04626); experiment: HER2 kinase activity test (HTRF); format: biochemical
Protocol: Test Example 5: HER2 Kinase Activity Test
1. Her2 Kinase test steps
2) 100 nl of the diluted compound working solution was transferred into each well of a reaction plate (784075, Greiner) by an Echo 550 liquid hander. The reaction plate was sealed with a sealing film and centrifuged at 1000 g for 1 min.
3) 1 ng/μL Her2 kinase solution was prepared with 1× kinase reaction buffer.
4) 5 μL of the kinase solution prepared above was added to each well of the reaction plate. The plate was sealed with a sealing film, centrifuged at 1000 g for 1 min, and placed at room temperature for 10 min.
5) A mixture of 2× kinase substrate and ATP was prepared by using 1× kinase reaction buffer, and the 2× Her2 kinase substrate was 2 μM TK-substrate-biotin and 4 μM ATP
6) 5 μL of the mixture of 2× TK-substrate-biotin and ATP was added to the reaction plate, centrifuged at 1000 g for 30 seconds to start the reaction.
7) Her2 kinase test was performed at room temperature for 50 min of reaction.
9) 10 μL of the mixture of Sa-XL 665 and TK-antibody-Cryptate was added to each well, centrifuged at 1000 g for 30 seconds, and reacted at room temperature for 1 h.
10) The fluorescence signals at 615 nm (Cryptate) and 665 nm (XL665) were read by Envision 2104.
1) The percentage inhibition was calculated as follows: […]
Ratiopositive control: average value of Ratio 665/615 nm of all positive control wells in the plate.
Rationegative control: average value of Ratio 665/615 nm of all negative control wells in the plate.
2) Calculation of IC50 and fitting of dose-effect curve of compound:
The IC50 of the compound was derived using the following nonlinear fitting formula with GraphPad 6.0.
Y=Bottom+(Top−Bottom)/(1+10^((Log IC50−X)×HillSlope)).
X: log value of compound concentration; Y: percentage inhibition of compound

[6] = Blood-brain barrier permeability test, oral, SD rats; format: in vivo; details: rat, oral 10 mg/kg single dose; for concentration at 1 h / Kp at 1 h: time point 1 h; for concentration at 4 h / Kp at 4 h: time point 4 h
Protocol: Test Example 6: Blood-Brain Barrier Permeability Test
Each test compound was administered orally at a single dose of 10 mg/kg to SD rats for pharmacokinetic study. Each group included 9 rats. The test compound was dissolved in 5% DMSO+10% solutol+85% saline, vortexed for 1-2 min, and ultrasonicated for 5-10 min to prepare into a colorless, transparent and clear administration solution. Animals were fasted overnight before administration. 1 h, 2 h, and 4 h after administration, three SD rats were selected from each group to take about 0.2-0.3 mL of blood through their orbit. The blood sample was placed on ice once collected, and centrifuged to separate the plasma within 15 min (centrifugation conditions: 8000 rpm, 1 min, room temperature). The collected plasma was stored at −20° C. before analysis. Immediately after blood collection, the cerebrospinal fluid and brain tissue were collected. The cerebrospinal fluid was draw out by dural puncture with a micro-sampler syringe under direct vision. Namely, about 100 μl of cerebrospinal fluid was collected with a 100 μl micro sample syringe from the rat that was anesthetized by chloral hydrate, with the head-fixed, the back hair-cut off, a transverse incision (2 cm) made at the line connecting the roots of the two ears, and the muscle layer of the neck and skull base bluntly scraped to expose the foramen magnum. The cerebrospinal fluid was stored at −20° C. before analysis. The rat then was sacrificed immediately, with its head cut off. The dissected brain tissue, with the surface capillaries peeled off, was weighed, added with 3 times the amount of cold saline, homogenized by a homogenizer for 1 min, and stored at −20° C. before analysis. 20 μL of plasma sample and brain homogenate sample was respectively added into 200 μL of working internal standard solution (the same volume of vehicle was added to the blank instead of internal standard), vortexed for 1 min, and centrifuged at 13500 rpm for 10 min. 100 μL of the supernatant was taken and analyzed by LC-MS/MS. 20 μL of the cerebrospinal fluid was added into 60 μL of working internal standard solution (the same volume of vehicle, instead of internal standard, was added to the blank), vortexed for 1 min, and centrifuged at 13500 rpm for 10 min. 50 μL of the supernatant was taken and analyzed by LC-MS/MS.

[7] = brain, read-out: Drug concentration in brain tissue
[8] = brain/plasma, read-out: Brain tissue/plasma
[9] = cerebrospinal fluid, read-out: Drug concentration in cerebrospinal fluid
[10] = cerebrospinal fluid/plasma, read-out: Cerebrospinal fluid/plasma
[11] = plasma, read-out: Plasma drug concentration

Chain of HER2 kinase (P04626 23-1255): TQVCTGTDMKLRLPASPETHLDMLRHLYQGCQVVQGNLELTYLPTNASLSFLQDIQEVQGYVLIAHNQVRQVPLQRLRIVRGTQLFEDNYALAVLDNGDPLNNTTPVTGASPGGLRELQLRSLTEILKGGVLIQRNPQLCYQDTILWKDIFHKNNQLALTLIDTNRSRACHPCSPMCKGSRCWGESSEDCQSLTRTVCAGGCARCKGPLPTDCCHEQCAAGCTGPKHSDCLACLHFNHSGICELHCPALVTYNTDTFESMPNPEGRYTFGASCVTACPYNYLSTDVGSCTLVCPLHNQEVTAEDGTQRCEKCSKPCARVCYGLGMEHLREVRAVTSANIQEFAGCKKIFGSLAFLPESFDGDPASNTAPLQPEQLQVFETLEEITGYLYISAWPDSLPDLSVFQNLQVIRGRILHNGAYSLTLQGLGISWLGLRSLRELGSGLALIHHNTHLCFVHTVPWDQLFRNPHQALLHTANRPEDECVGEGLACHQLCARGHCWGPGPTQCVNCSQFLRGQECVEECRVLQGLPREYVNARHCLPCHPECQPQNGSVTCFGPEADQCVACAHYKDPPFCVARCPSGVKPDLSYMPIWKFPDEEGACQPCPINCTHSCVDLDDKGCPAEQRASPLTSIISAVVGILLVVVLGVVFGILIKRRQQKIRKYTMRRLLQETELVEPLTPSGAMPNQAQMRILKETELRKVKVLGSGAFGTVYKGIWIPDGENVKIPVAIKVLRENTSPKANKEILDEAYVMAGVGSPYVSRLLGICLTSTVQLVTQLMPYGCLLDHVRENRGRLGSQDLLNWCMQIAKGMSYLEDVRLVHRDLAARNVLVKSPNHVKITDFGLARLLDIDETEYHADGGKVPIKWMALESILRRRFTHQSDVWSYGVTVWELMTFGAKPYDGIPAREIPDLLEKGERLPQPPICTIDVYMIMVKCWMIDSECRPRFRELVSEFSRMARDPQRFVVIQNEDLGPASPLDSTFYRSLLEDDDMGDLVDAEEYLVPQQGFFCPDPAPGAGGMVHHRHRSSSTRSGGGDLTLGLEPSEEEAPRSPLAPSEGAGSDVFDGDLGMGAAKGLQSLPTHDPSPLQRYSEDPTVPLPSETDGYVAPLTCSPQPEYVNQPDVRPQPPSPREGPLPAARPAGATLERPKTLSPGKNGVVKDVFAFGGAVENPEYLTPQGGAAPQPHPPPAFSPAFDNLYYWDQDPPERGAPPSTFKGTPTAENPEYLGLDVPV

Compound | microsomal CLint [1] [µL/min/mg] | microsomal CLint [2] [µL/min/mg] | IC50 (TMD8 cell proliferation) [nM] | inhibitory effect against the tumor compared with ARQ-531 and ibrutinib [3] | IC50 (DOHH2 cell proliferation) [nM] | IC50 (BT474 cell proliferation) [nM] | IC50 [5] [nM] | IC50 (HER2 kinase) [nM] | concentration at 1 h [6, 7] [ng/g] | concentration at 4 h [6, 7] [ng/g] | Kp at 1 h [6, 8] | Kp at 4 h [6, 8] | concentration at 1 h [6, 11] [ng/mL] | concentration at 4 h [6, 11] [ng/mL] | further results
COc1cccc(Oc2ccc(-c3nc(C4CCC(CO)OC4)n4ccnc(N)c34)cc2)c1C#N (single isomer, unassigned) [Example 89-P1] | < 9.6 | 15.7 | 4.3 | significantly better inhibitory effect against the tumor than the clinical phase II drug ARQ-531 and the marketed drug ibrutinib | – | – | – | – | – | – | – | – | – | – | –
Nc1nccn2c(C34CCC(CO)(CC3)OC4)nc(-c3ccc(C(=O)Nc4cc(C(F)(F)F)ccn4)cc3)c12 [Example 118] | < 9.6 | 13.7 | 23.8 | significantly better inhibitory effect against the tumor than the clinical phase II drug ARQ-531 and the marketed drug ibrutinib | 250 | – | – | – | – | – | – | – | – | – | Cl [4]: 0.8 mL/min/kg
Nc1nccn2c(C34CCC(CO)(CC3)OC4)nc(-c3ccc(C(F)(F)c4cccc(F)c4F)cc3)c12 [Example 130] | – | – | – | – | – | 89.9 | 100 | 4.35 | – | – | – | – | – | – | –
Nc1nccn2c(C34CCC(CO)(CC3)OC4)nc(-c3ccc(C(F)(F)c4cccc(F)c4)cc3)c12 [Example 142] | – | – | – | – | – | 153 | 106 | – | – | – | – | – | – | – | –
Nc1nccn2c(C34CCC(CO)(CC3)OC4)nc(-c3ccc(C(F)(F)c4cccc(F)c4Cl)cc3)c12 [Example 146] | – | – | – | – | – | 86.9 | 82 | 3.92 | 296 | 410 | 0.78 | 1.1 | 380 | 373 | concentration at 1 h [6, 9]: 27.4 ng/mL; concentration at 4 h [6, 9]: 34.3 ng/mL; Kp at 1 h [6, 10]: 0.072; Kp at 4 h [6, 10]: 0.092
CC#CC(=O)N1CC[C@@H](n2c(=O)n(-c3ccc(Oc4ccccc4)cc3)c3c(N)ncnc32)C1 [Tirabrutinib, reference compound] | 13.1 | 32.9 | 158 | – | 8090 | – | – | – | 84 | 13.3 | 0.118 | 0.054 | 713 | 226 | concentration at 2 h ([6]; brain, time point 2 h, read-out: Drug concentration in brain tissue): 31.1 ng/g; Kp at 2 h ([6]; brain/plasma, time point 2 h, read-out: Brain tissue/plasma): 0.06; concentration at 2 h ([6]; plasma, time point 2 h, read-out: Plasma drug concentration): 515 ng/mL
